Data set [1] deals with osteoclast differentiation. Description: Inhibitory effect on osteoclast differentiation, co-culture of bone marrow cells and osteoblast, TRAP staining. In kind it is cell-based, mouse. Particulars: Mus musculus, Osteoclast, 168 h, read-out: inhibitory effect on osteoclast differentiation(%). The gist of the method: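 Mouse ddY bone marrow cells (25,000/cm^2) were co-cultured with neonatal ICR calvarial osteoblasts (10,000/cm^2) and compound for 7 days, with 10^−7 M dexamethasone and 10^−8 M vitamin D3, refreshed every 2–3 days. TRAP-positive cells with ≥3 nuclei were counted and expressed as % inhibition versus negative controls.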

For data set [2], the system named is ovariectomized white mouse. Description: Therapeutic effect in mouse model of osteoporosis induced by ovariectomy, trabecular bone volume of the femur by histomorphometry. The format is in vivo. Particulars: read-out: Changes in trabecular bone volume (% relative to vehicle control). On the procedure:
The therapeutic effect of each benzamidine derivate of the present invention was evaluated on the ovariectomized white mouse. The substances of Examples 18, 19 and 72 were administered from 4 weeks after operation for 4 weeks and the substances of Examples 27, 33, 36, 47, 53 and 59 were administered from 3 days after operation for 29 days. Thereafter, the changes in the trabecular bone volume (TBV) of the femur were observed via histomorphometry.
Female ddY mice (6-week-old, SLC, Japan) were used after acclimatization for 7 days. Animals to be test were allocated 5 per a plastic cage for mice, and raised in a temperature (20 to 25[…]) and humidity (30 to 35%) controlled room. Feed and water were supplied free to access.
Salts of the benzamidine derivative of the present invention (methanesulfonic acid or HCl) were dissolved or suspended in sterilized, distilled water or 5% DMSO, and administered at a dose of 10 ml per body weight (kg) in the form of a solution. The substances of Examples 18, 19 and 72 were administered from 4 weeks after operation for 4 weeks, and the substances of Examples 27, 33, 36, 47, 53 and 59 were administered from 3 days after operation for 29 days each at 50 mg/kg/day.
After all animals anesthetize using ketamine hydrochloride and xylazine hydrochloride, bilateral ovaries were removed in order to induce estrogen-deficient osteoporosis. After ovariectomy, the […] were closed by routine methods.
The left femur was separated at a final sacrifice day, and fixed in 10% neutral formalin, then decalcified in a decalcifying solution (solution composed of 2.44% formic acid, and 0.5 N sodium hydroxide). The decalcifying solution was exchanges once a day for 5 days. After completion of the decalcification, the femur was embedded in paraffin, sectioned (3 to 4 μM), and stained with a hematoxylin-eosin stain. Observation was made using optical micrography.
The trabecular bone volume was calculated using automated image analysis (analysis Image Processing; SIS, Germany) in the femur using a femur histological specimen prepared in the above manner. The trabecular bone volume was calculated as percentage (%) levels.
All the numeral values were determined and compared to that of the vehicle control used in each experiment, using the calculation by the following Equation 1. Change(%)=[(trabecular bone volume of a−trabecular bone volume of b)/trabecular bone volume of b]×100 [Equation 1]
a: Experiment group, b: Vehicle group

The test system of another data set is MC3T3. Description: Cytotoxicity test (MTT), MC3T3. As to conditions: 10^−6M, 72 hrs, in comparison with the control group. In kind it is cell-based. The protocol: (§1) The cytotoxic effect of the benzamidine derivative of the present invention was evaluated by carrying out the experiment described below.
(§2) The test substance was diluted in an appropriate solvent at a 10^−2 M concentration. This substance was diluted in an appropriate culture medium for the cells used in the cytotoxicity test to a concentration of […], and loaded into a 96-well plate in 100 μl per well. The cell lines to be used in the cytotoxicity test were plated on a 96-well plate in a dose of 1.0×10^4 cells/1OO μl per well and cultured for 72 hrs. 25 μl of MTT [3-(4,5-dimethyl-2-thiazolyl)-2,5-diphenyl-2H-tetrazolium bromide] dissolved in PBS (2 mg/mL) were added before 4 hrs of the end of culture. After completion of the reaction, the plates were centrifuged, the medium was discarded and 100 μl of DMSO was added to dissolve formazan. Finally, the absorbance of the developed plates was measured at 540 nm. The survival rates of the cells were expressed as % concentration values in comparison with the control group.

In another data set the test system is calvaria. The experiment in a line: Cytotoxicity test (MTT), calvaria. In kind it is cell-based. As to conditions: 10^−6M, 72 hrs, in comparison with the control group. The protocol:
as §1, §2

For a further data set, the system named is HOS. Description: Cytotoxicity test (MTT), HOS. The format is cell-based. As to conditions: 10^−6M, 72 hrs, in comparison with the control group. On the procedure: as §1, §2
The mark [3] stands for this setting: 1 μm, 7 days co-culture, TRAP-positive osteoclasts with 3 or more nuclei, relative to negative controls.
Where [4] appears, read: 672 h, ovariectomized ddY mice, femur, 50 mg/kg/day, administered from 4 weeks after operation for 4 weeks.
Where [5] appears, read: 696 h, ovariectomized ddY mice, femur, 50 mg/kg/day, administered from 3 days after operation for 29 days.

Like-named read-outs stand apart in the source and are kept apart here.

As to `Cc1nc(-c2ccc(OCCCCCOc3ccc(C(=N)NO)cc3)cc2)c(CCN2CCN(C)CC2)s1` [Example 19, N-hydroxy-4-[5-(4-{2-methyl-5-[2-(4-methyl-piperazin-1-yl)-ethyl]-thiazol-4-yl}-phenoxy)-pentyloxy]-benzamidine], the inhibition at 1 µM in data set [1] (setting [3]) came to 100%. In data set [2] (setting [4]), the change in vivo at 50 mg/kg/day came out at 2.99%.

For `CC(C)c1nc(-c2ccc(OCCCCCOc3ccc(C(=N)NO)cc3)cc2)c(CCN2CCOCC2)s1` [Example 27, N-hydroxy-4-(5-{4-[2-isopropyl-5-(2-morpholin-4-yl-ethyl)-thiazol-4-yl]-phenoxy}-pentyloxy)-benzamidine], the inhibition at 1 µM in data set [1] (setting [3]) came out at 81%. Besides, the change in vivo at 50 mg/kg/day in data set [2] (setting [5]) worked out at 23.6%.

Turning to `N=C(NO)c1ccc(OCCCCCOc2ccc(-c3nc(C4CCCCC4)sc3CCN3CCOCC3)cc2)cc1` [Example 33, N-hydroxy-4-(5-{4-[2-cyclohexyl-5-(2-morpholin-4-yl-ethyl)-thiazol-4-yl]-phenoxy}-pentyloxy)-benzamidine], the inhibition at 1 µM in data set [1] was found to be 92%. In data set [2] (696 h), the change in vivo at 50 mg/kg/day came to 26.3%.

Turning to `CNc1nc(-c2ccc(OCCCCCOc3ccc(C(=N)NO)cc3)cc2)c(CCN2CCOCC2)s1` [Example 47, N-hydroxy-4-(5-{4-[2-methylamino-5-(2-morpholin-4-yl-ethyl)-thiazol-4-yl]-phenoxy}-pentyloxy)-benzamidine], the inhibition at 1 µM in data set [1] (setting [3]) worked out at 89.6%. For the same molecule, the change in vivo at 50 mg/kg/day in data set [2] (setting [5]) stood at 5.77%.

On to `CN(C)c1nc(-c2ccc(OCCCCCOc3ccc(C(=N)NO)cc3)cc2)c(CCN2CCOCC2)s1` [Example 53, N-hydroxy-4-(5-{4-[2-dimethylamino-5-(2-morpholin-4-yl-ethyl)-thiazol-4-yl]-phenoxy}-pentyloxy)-benzamidine], for which the inhibition at 1 µM in data set [1] (setting [3]) was found to be 99.3%. In addition, the change in vivo at 50 mg/kg/day in data set [2] (setting [5]) was 25.6%.

Turning to `COCCN(CCOC)c1nc(-c2ccc(OCCCCCOc3ccc(C(=N)NO)cc3)cc2)c(CCN2CCOCC2)s1` [Example 58, N-hydroxy-4-(5-{4-[2-[bis-(2-methoxy-ethyl)-amino]-5-(2-morpholin-4-yl-ethyl)-thiazol-4-yl]-phenoxy}-pentyloxy)-benzamidine], the inhibition at 1 µM in data set [1] (setting [3]) was determined as 100%. Also, the entries for the “survival rates of the cells” value in the data set on MC3T3, in the data set with calvaria and in the data set with HOS were 79.2%, 76.8% and 85.4%, respectively.

Regarding `N=C(NO)c1ccc(OCCCCCOc2ccc(-c3nc(N4CCOCC4)sc3CCN3CCOCC3)cc2)cc1` [Example 59, N-hydroxy-4-(5-{4-[2-morpholin-4-yl-5-(2-morpholin-4-yl-ethyl)-thiazol-4-yl]-phenoxy}-pentyloxy)-benzamidine], the inhibition at 1 µM in data set [1] (setting [3]) was 58%. The change in vivo at 50 mg/kg/day in data set [2] (setting [5]) amounted to 5.66%.

On to `N=C(NO)c1ccc(OCCCCCOc2ccc(-c3nc(N4CCOCC4)sc3CCNCCN3CCOCC3)cc2)cc1` [Example 62, N-hydroxy-4-[5-(4-{2-morpholin-4-yl-5-[2-(2-morpholin-4-yl-ethylamino)-ethyl]-thiazol-4-yl}-phenoxy)-pentyloxy]-benzamidine], for which the inhibition at 1 µM in data set [1] (setting [3]) is 43.6%. The “survival rates of the cells” value was determined as 97.0% in the data set on MC3T3, 92.7% in the data set on calvaria and 95.1% with HOS.

Regarding `N=C(NO)c1ccc(OCCCCCOc2ccc(-c3nc(CN4CCCCC4)sc3CCN3CCOCC3)cc2)cc1` [Example 63, N-hydroxy-4-(5-{4-[5-(2-morpholin-4-yl-ethyl)-2-piperidin-1-yl-methyl-thiazol-4-yl]-phenoxy}-pentyloxy)-benzamidine], the inhibition at 1 µM in data set [1] (setting [3]) is 99.2%. The “survival rates of the cells” value with MC3T3 came out at 89.4%; with calvaria it was 86.9%; with HOS it was 86.5%.

As for `CNC(=O)c1sc(N)nc1-c1ccc(OCCCCCOc2ccc(C(=N)NO)cc2)cc1` [Example 72, N-hydroxy-4-{5-[4-(2-amino-5-methylcarbamoyl-thiazol-4-yl)-phenoxy]-pentyloxy}-benzamidine], the inhibition at 1 µM in data set [1] (setting [3]) turned out to be 97.6%. Further, the change in vivo at 50 mg/kg/day in data set [2] (setting [4]) is 95.6%.
